Test results reported in patent US20040082664A1, “Derivatives of hydroxyphenyl, a method for preparing thereof and their pharmaceutical composition” (priority 2002, published 2004).

Assays:
skin allograft rejection = experiment: Inhibition of skin allograft rejection (Balb/c tail skin grafted onto C57BL/6 mouse); type: in vivo
Experimental: For the experiment, allogeneic Balb/c(H-2d) mouse-tail skin was grafted onto C57BL/6(H-2b) mouse. Generally 7-8 mice were assigned to each group. All the phenyl derivatives were dissolved in 100% ethanol, mixed with olive oil, and adjusted to the final concentration of ethanol therein less than 5%. […] Meanwhile, for the group of untreated mice, an olive oil-ethanol mixture was administered as a control. The grafted skin was monitored daily after the removal of the bandage on days 7-9. Rejection was defined as more than 80% necrosis of the graft epithelium.

IL-2 promoter = IL-2 promoter luciferase reporter assay in anti-CD3 activated Jurkat cells; type: cell-based; conditions: Homo sapiens, TCR-induced (anti-CD3) IL-2 promoter luciferase, 2 h pre-incubation
Experimental: In order to confirm whether the compounds of the invention can pass through a cell membrane and inhibit the expression of IL-2 gene leading to T-cell proliferation, the present inventors firstly confirmed T-cell activity by detecting the activity of the luciferase fused on the downstream of IL-2 promoter.
To investigate the activity of IL-2 promoter, Jurkat cells (1×10^6) were transfected with a IL-2 reporter plasmids using Superfect™ (Qiagen Inc.). After 24 hours of transfection, Jurkat cells were pre-incubated with compounds of various concentrations (1 uM-50 uM) for 2 hours and further cultured on 35mm plate pre-coated with 5 ug/ml of anti-CD3 antibody, resulting in T cell activation. The luciferase activity was measured using Berthold luminometer LB953. The IC50 (50% inhibition concentration) of the compounds of the invention on TCR-induced IL-2 promoter activation are shown in Table 2.

GST-fused lck SH2 domain = target: T1, GST-fused lck SH2 domain (Homo sapiens, UniProt P06239); experiment: Inhibition of in vitro binding of lck SH2 domain to its cognate pYEEI peptide (BIAcore 2000); conditions: IC50 class for inhibition of GST-lckSH2 binding to immobilized biotinylated […]pYEEIPI peptide; read-out: BOND DEGREE WITH SH2 OF 1ck
T1 construct: GST (Glutathione transferase)-fused lck SH2 domain
Experimental: The present inventors investigated the inhibition activity of phenyl derivatives on the interaction of GST (Glutathione transferase)-fused lck SH2 domain and a peptide […]pYEEIPI (comprising the sequence PYEEI, a cognate peptide of Lck SH2) by using a real time sensorgram (BIAcore 2000).
At first, the biotinylated peptide was fixed on the surface of BIAcore analysis apparatus and then GST-lckSH2 protein was injected over the surface of the immobilized peptides. The binding of GST-lck SH2 with the peptide is represented as the resonance units (referred as “RU” hereinafter) and 1,000 RU corresponds to a change in surface concentration of 1 ng/mm^2. The binding of GST-lck with the fixed peptide causes the change of refractory index, leading to the increase of RU. In the mean time, when the binding of GST-lck with the fixed peptide is inhibited, RU decreases. Those results are represented in Table 1.

[1] = system: collagen-induced rheumatoid arthritis; experiment: Inhibition of collagen-induced rheumatoid arthritis in DBA1/LacJ mice; type: in vivo, mouse; design: key: sum of 4 leg scores (0-4 each), max 16; conditions: 50 mg/kg/day i.p. daily; day 15 after treatment (day 36 after primary immunization); sum of scores of four legs, maximum 16; mean ± standard deviation
Experimental: After 2 weeks, booster immunization was carried out with 50 μg C II/IFA. From the 3rd week after primary immunization, compounds of the present invention were injected daily into peritoneal cavities of 6-8 mice per group for 15-20 days.
The vehicle control groups were injected daily with 100 μl of 5% ethanol-olive oil mixture in total 15-20 times. Widely used anti-rheumatic drug, Methotrexate, was dissolved in PBS and then injected to mice at 1 mg/kg/day every other day in total 8-10 times. Meanwhile, the compounds of the invention were dissolved in ethanol and then mulsified in olive oil, in which the final ethanol concentration was adjusted to 5% and the compounds of this invention was 50 mg/kg/day.
From the 3rd week after primary immunization, the extent of edema and the joint swelling was monitored everyday to determine arthritic index. Arthitic index is the sum of the arthritic scores of all 4 legs and, therefore, maximum arthritis index of 16 can be achieved (e.g., [4 (maximum arthritic score)/leg]×[4 legs/mouse]=16 (maximum arthritis index/mouse)). […] was presented by the mean arthritis index±standard deviation of each mouse group.

[2] = 100 mg/kg/day into abdominal cavity from day of transplantation until complete rejection

T1 sequence (P06239 127-224 limits assumed): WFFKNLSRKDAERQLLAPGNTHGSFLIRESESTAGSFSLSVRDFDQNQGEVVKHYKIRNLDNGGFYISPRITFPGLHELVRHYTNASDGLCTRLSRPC

SMILES | Survival time of skin graft tissue (days ± variance) (skin allograft rejection; [2]) [days] | IC50 (IL-2 promoter) [µM] | IC50 (GST-fused lck SH2 domain) [µM] | Arthritis index [1] | Survival time of skin graft tissue (days ± variance) (skin allograft rejection; Example (1) 50 mg/kg/day) [days] | Survival time of skin graft tissue (days ± variance) (skin allograft rejection; Rapamycine 1 mg/kg/day) [days] | Survival time of skin graft tissue (days ± variance) (skin allograft rejection; Rapamycine 4 mg/kg/day) [days]
COC(=O)[C@H](Cc1ccc(O)cc1)NC(=O)/C=C/c1ccc(O)c(O)c1 [Example 47, (S)-2-[trans-3-(3,4-dihydroxy-phenyl)-acryloylamino]-3-(4-hydroxy-phenyl)-propionic acid methyl ester] | 11.7 ± 1.0 | 21 | 25 to 50 | 6.9 ± 1.1 | – | – | –
COC(=O)[C@@H](Cc1ccc(O)c(O)c1)NC(=O)/C=C/c1ccc(O)c(O)c1 [Example 1, 3-(3,4-dihydroxy-phenyl)-(R)-2-[3-trans-(3,4-dihydroxy-phenyl)-acryloylamino]-propionic acid methyl ester] | 15.1 ± 1.5 | 1.2 | < 10 | 4.3 ± 1.5 | 11.2 ± 0.5 | – | –
CN(C(=O)/C=C/c1ccc(O)c(O)c1)[C@@H](Cc1ccc(O)c(O)c1)C(N)=O [Example 42, N-[l-carbamoyl-2-(3,4-dihydroxy-phenyl)-ethyl]-(S)-3-trans-(3,4-dihydroxy-phenyl)-N-methyl-acrylamide] | 14.3 ± 0.9 | 14.6 | 10 to 25 | 5.1 ± 1.9 | – | – | –
CCOC(=O)[C@H](Cc1ccc(O)c(O)c1)NC(=O)/C=C/c1ccc(O)c(O)c1 [Example 10, 3-(3,4-dihydroxy-phenyl)-(S)-2-[3-trans-(3,4-dihydroxy-phenyl)-acryloylamino]-propionic acid ethyl ester] | 15.3 ± 0.8 | 4.4 | 10 to 25 | 5.8 ± 0.8 | – | – | –
COC(=O)C(Cc1ccc(O)c(O)c1)NC/C=C/c1ccc(O)c(O)c1 (centres unmarked) [Example 53, 3-(3,4-dihydroxy-phenyl)-2-[3-(3,4-dihydroxy-phenyl)-arylamino]-propionic acid methyl ester] | 11.9 ± 1.1 | 24.4 | – | 9.8 ± 1.2 | – | – | –
CC(C)(C)OC(=O)[C@@H](Cc1ccc(O)c(O)c1)OC(=O)/C=C/c1ccc(O)c(O)c1 [Example 56, (R)-3-(3,4-Dihydroxy-phenyl)-acrylic acid 2-(3,4-dihydroxy-phenyl)-1-tert-butoxycarbonyl ethyl ester] | 12.9 ± 1.2 | 6.2 | 25 to 50 | 5.2 ± 0.5 | – | – | –
CC(C)(C)OC(=O)[C@H](Cc1ccc(O)c(O)c1)NC(=O)/C=C/c1ccc(O)c(O)c1 [Example 13, 3-(3,4-dihydroxy-phenyl)-(S)-2-[3-trans-(3,4-dihydroxy-phenyl)-acryloylamino]-propionic acid tert-butyl ester] | 14.5 ± 0.6 | 7.2 | 25 to 50 | 6.9 ± 1.1 | – | – | –
O=C(/C=C/c1ccc(O)c(O)c1)N[C@@H](Cc1ccc(O)c(O)c1)C(=O)O [Example 9, 3-(3,4-dihydroxy-phenyl)-(S)-2-[3-trans-(3,4-dihydroxy-phenyl)-acryloylamino]-propionic acid] | 14.8 ± 0.9 | 18.2 | 25 to 50 | 7.2 ± 1.2 | – | – | –
NC(=O)[C@H](Cc1ccc(O)c(O)c1)NC(=S)/C=C/c1ccc(O)c(O)c1 [Example 28, 3-(3,4-dihydroxy-phenyl)-(S)-2-[3-trans-(3,4-dihydroxy-phenyl)-thioacryloylamino]-propioneamide] | 13.9 ± 0.9 | 14.1 | 10 to 25 | 5.8 ± 0.6 | – | – | –
CCCOC(=O)[C@@H](Cc1ccc(O)c(O)c1)OC(=O)/C=C/c1ccc(O)c(O)c1 [Example 55, (R)-3-(3,4-Dihydroxy-phenyl)-acrylic acid 2-(3,4-dihydroxy-phenyl)-1-propoxycarbonyl ethyl ester] | 12.1 ± 0.8 | 5.7 | 10 to 25 | 4.8 ± 0.8 | – | – | –
NC(=O)[C@@H](Cc1ccc(O)c(O)c1)OC(=O)/C=C/c1ccc(O)c(O)c1 [Example 57, (R)-3-(3,4-Dihydroxy-phenyl)-acrylic acid 2-(3,4-dihydroxy-phenyl)-1-carbamoyl ethyl ester] | 13.1 ± 0.7 | 5.2 | 25 to 50 | 4.5 ± 1.2 | – | – | –
CCCOC(=O)[C@H](Cc1ccc(O)c(O)c1)N(C)C(=O)/C=C/c1ccc(O)c(O)c1 [Example 39, 3-(3,4-dihydroxy-phenyl)-(S)-2-{[3-trans-(3,4-dihydroxy-phenyl)-acryloyl]-methyl-amino}-propionic acid propyl ester] | 14.1 ± 1.2 | 9.7 | 10 to 25 | 5.7 ± 1.2 | – | – | –
COC(=O)[C@@H](Cc1ccc(O)c(O)c1)OC(=O)/C=C/c1ccc(O)c(O)c1 [Example 54, (R)-3-(3,4-dihydroxy-phenyl)-acrylic acid 2-(3,4-dihydroxy-phenyl)-1-methoxycarbonyl ethyl ester] | 13 ± 0.9 | 4.5 | 10 to 25 | 3.5 ± 1.1 | – | – | –
O=C(O)[C@H](Cc1ccc(O)c(O)c1)NC(=S)/C=C/c1ccc(O)c(O)c1 [Example 23, 3-(3,4-dihydroxy-phenyl)-(S)-2-[3-trans-(3,4-dihydroxy-phenyl)-thioacryloylamino]-propionic acid] | 13.2 ± 0.8 | 16 | 25 to 50 | 6.7 ± 0.8 | – | – | –
NC(=O)[C@H](Cc1ccc(O)c(O)c1)NC(=O)/C=C/c1ccc(O)c(O)c1 [Example 14] | 15.3 ± 0.9 | 6.9 | 10 to 25 | 5.3 ± 1.2 | – | – | –
CO[C@H]1C[C@@H]2CC[C@@H](C)[C@@](O)(O2)C(=O)C(=O)N2CCCC[C@H]2C(=O)O[C@H]([C@H](C)C[C@@H]2CC[C@@H](O)[C@H](OC)C2)CC(=O)[C@H](C)/C=C(\C)[C@@H](O)[C@@H](OC)C(=O)[C@H](C)C[C@H](C)/C=C/C=C/C=C/1C [Rapamycine, reference compound] | – | – | – | – | – | 12.7 ± 1.5 | 16.2 ± 1.0
CCOC(=O)[C@@H](Cc1ccc(O)c(O)c1)NC(=S)/C=C/c1ccc(O)c(O)c1 [Example 17, 3-(3,4-dihydroxy-phenyl)-(R)-2-[3-trans-(3,4-dihydroxy-phenyl)-thioacryloylamino]-propionic acid ethyl ester] | – | 4.6 | 10 to 25 | 5.4 ± 0.7 | – | – | –
CN(C(=O)/C=C/c1ccc(O)c(O)c1)[C@H](Cc1ccc(O)c(O)c1)C(N)=O [Example 35, N-[l-carbamoyl-2-(3,4-dihydroxy-phenyl)-ethyl]-(R)-3-trans-(3,4-dihydroxy-phenyl)-N-methyl-acrylamide] | – | 9.7 | 10 to 25 | 6.8 ± 1.9 | – | – | –
NC(=O)[C@@H](Cc1ccc(O)c(O)c1)NC(=O)/C=C/c1ccc(O)c(O)c1 [Example 7] | – | 2.4 | < 10 | 4.3 ± 1.5 | – | – | –
